Our source for the Kd values is ChEMBL document CHEMBL3991601, “The target landscape of clinical kinase drugs” (Science, 2017).

A word on the Kd: it is the constant that tells how readily two partners part at equilibrium.

Test [1] concerns the target T1, Signal recognition particle receptor subunit alpha (Homo sapiens, UniProt P08240).
T1 sequence (P08240 whole entry): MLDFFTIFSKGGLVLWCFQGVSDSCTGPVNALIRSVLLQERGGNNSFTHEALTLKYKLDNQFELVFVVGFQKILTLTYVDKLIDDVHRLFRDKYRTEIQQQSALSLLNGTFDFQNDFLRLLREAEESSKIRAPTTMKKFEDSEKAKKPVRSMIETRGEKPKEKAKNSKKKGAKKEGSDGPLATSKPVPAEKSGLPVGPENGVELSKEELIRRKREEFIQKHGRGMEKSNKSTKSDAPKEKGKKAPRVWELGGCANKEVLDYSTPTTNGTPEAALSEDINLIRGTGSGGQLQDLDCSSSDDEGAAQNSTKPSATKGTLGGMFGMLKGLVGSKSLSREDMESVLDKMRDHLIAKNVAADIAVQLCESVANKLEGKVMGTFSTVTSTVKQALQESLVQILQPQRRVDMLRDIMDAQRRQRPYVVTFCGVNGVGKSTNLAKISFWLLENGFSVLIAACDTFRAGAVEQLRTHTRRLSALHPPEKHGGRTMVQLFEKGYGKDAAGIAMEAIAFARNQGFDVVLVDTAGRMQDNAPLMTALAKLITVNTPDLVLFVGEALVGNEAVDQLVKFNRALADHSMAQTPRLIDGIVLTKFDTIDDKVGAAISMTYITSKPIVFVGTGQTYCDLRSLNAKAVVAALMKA

In a further test the target is TGF-beta receptor type-2 (Homo sapiens, UniProt P37173).
TGF-beta receptor type-2, sequence (P37173 whole entry): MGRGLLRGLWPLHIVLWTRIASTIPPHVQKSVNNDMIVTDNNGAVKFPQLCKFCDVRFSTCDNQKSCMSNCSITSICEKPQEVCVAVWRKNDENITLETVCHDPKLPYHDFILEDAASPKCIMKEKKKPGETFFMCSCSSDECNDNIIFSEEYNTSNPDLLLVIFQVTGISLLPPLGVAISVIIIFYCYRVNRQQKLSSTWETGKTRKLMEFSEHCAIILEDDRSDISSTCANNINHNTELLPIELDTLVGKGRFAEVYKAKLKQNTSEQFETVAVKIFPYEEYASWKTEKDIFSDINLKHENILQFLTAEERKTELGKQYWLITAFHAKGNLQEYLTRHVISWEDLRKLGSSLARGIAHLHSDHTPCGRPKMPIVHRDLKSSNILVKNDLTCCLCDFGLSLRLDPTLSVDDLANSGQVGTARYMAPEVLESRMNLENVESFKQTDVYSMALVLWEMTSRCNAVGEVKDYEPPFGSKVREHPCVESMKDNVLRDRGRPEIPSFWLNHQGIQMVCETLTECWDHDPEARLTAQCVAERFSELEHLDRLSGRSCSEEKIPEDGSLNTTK
In test [2] the target is T2, Bifunctional phosphoribosylaminoimidazole carboxylase/phosphoribosylaminoimidazole succinocarboxamide synthetase (Homo sapiens, UniProt P22234).
T2 sequence (P22234 whole entry): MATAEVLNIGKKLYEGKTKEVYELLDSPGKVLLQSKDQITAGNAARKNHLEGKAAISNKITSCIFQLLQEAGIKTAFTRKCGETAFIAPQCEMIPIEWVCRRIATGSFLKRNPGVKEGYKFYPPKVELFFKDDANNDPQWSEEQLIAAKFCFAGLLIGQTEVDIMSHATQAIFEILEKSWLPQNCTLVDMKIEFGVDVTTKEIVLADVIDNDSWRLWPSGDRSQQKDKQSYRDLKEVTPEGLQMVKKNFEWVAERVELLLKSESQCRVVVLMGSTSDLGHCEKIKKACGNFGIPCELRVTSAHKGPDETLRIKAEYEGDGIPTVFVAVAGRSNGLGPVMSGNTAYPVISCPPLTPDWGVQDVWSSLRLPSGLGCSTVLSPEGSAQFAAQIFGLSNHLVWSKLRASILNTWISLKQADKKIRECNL

Test [3] has as its target T3, Calcium/calmodulin-dependent protein kinase type IV (Homo sapiens, UniProt Q16566).
T3 sequence (Q16566 whole entry): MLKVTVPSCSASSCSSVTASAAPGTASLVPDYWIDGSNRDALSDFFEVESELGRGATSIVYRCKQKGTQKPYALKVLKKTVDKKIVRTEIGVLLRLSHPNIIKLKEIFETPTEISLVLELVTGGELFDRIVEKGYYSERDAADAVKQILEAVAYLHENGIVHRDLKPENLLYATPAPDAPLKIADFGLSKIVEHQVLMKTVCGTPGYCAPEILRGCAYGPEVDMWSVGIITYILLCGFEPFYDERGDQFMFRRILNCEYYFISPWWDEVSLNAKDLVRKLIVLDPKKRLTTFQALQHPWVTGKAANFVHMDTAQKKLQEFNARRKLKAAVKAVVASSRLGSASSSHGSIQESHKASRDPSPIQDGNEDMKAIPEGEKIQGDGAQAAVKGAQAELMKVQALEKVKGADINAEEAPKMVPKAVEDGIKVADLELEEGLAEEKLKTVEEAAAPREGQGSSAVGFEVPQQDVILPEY

Test [4] deals with T4, Serine/threonine-protein kinase TAO2 (Homo sapiens, UniProt Q9UL54).
T4 sequence (Q9UL54 whole entry): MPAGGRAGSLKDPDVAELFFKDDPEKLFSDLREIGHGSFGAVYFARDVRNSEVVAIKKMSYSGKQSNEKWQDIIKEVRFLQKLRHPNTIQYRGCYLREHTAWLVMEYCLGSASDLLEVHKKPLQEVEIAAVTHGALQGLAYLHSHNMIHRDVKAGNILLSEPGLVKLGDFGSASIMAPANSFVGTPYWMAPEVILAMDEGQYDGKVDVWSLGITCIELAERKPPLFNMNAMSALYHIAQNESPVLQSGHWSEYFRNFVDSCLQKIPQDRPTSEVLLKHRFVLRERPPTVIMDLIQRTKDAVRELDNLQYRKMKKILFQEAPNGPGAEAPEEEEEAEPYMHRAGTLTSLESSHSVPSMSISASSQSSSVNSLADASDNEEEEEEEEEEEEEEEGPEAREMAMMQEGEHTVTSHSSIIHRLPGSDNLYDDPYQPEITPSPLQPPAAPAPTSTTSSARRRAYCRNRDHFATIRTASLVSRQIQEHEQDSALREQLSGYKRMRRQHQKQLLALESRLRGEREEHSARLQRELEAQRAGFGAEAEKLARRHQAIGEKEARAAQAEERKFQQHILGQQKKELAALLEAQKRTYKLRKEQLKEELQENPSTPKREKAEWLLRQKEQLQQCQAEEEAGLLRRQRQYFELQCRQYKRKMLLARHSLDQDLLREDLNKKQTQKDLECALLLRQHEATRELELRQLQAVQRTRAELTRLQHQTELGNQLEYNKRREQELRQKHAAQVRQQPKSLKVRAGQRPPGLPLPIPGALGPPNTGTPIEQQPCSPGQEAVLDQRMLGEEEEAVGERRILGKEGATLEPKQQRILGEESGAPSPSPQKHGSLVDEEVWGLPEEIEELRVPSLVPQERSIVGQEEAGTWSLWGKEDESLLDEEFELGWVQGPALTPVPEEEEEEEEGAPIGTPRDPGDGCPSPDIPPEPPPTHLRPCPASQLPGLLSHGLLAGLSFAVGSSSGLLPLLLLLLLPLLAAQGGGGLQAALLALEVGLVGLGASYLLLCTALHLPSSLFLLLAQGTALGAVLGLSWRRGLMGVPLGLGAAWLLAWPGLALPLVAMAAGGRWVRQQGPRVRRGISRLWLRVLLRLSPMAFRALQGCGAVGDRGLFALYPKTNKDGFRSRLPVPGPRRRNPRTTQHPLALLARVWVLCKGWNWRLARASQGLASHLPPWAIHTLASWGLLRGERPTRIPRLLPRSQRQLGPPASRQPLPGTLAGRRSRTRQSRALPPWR

For test [5], the target named is MAP kinase-activated protein kinase 2 (Homo sapiens, UniProt P49137).
MAP kinase-activated protein kinase 2, sequence (P49137 whole entry): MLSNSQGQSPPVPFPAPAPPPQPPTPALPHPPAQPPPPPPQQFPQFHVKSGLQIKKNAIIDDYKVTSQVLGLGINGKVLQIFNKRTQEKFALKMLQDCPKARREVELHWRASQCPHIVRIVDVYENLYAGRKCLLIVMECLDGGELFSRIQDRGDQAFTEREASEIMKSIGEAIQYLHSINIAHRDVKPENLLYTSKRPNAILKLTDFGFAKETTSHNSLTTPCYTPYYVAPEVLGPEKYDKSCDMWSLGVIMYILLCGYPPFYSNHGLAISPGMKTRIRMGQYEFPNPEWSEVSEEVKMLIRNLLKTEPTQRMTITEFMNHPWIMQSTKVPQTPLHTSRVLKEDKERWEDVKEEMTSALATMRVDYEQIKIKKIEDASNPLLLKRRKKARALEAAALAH
The target in test [6] is Tyrosine-protein kinase FRK (Homo sapiens, UniProt P42685).
Tyrosine-protein kinase FRK, sequence (P42685 whole entry): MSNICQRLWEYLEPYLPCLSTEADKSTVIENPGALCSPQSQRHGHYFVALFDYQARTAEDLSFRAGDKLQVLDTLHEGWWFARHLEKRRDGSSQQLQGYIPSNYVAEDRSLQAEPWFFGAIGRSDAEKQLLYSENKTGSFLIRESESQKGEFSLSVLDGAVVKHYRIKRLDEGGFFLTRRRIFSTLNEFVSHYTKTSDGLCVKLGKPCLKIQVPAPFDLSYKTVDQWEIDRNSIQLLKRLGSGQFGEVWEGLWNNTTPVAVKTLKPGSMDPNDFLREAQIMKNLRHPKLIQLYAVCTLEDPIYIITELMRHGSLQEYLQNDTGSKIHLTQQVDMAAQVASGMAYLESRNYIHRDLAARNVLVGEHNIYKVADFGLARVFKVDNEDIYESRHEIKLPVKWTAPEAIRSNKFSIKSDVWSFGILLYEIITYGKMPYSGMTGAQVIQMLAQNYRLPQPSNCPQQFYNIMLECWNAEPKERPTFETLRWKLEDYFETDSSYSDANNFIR

Structures are written as SMILES. The source made the active and inactive calls. For most assays here, no stated cut-off is given here; in the data, actives have a measured Kd and inactives only a lower limit.

Turning to `CCN1CCN(Cc2ccc(Nc3ncc(F)c(-c4cc(F)c5nc(C)n(C(C)C)c5c4)n3)nc2)CC1` [ABEMACICLIB], the Kd (in test [1]; on TGF-beta receptor type-2; in test [2]; in test [3]; in test [4]; in test [5]) was > 30 µM (inactive) throughout. Besides, the Kd in test [6] was > 30 µM (inactive).

`C=CC(=O)Nc1cccc(Nc2nc(Nc3ccc(N4CCN(C(C)=O)CC4)cc3OC)ncc2C(F)(F)F)c1` [ROCILETINIB]: the Kd (in test [1]; on TGF-beta receptor type-2; in test [2]; in test [3]; in test [4]; in test [5]) was > 30 µM (inactive) each time. Moreover, the Kd in test [6] is > 30 µM (inactive).

For `O=c1[nH]c([C@@H]2CCCN2)nc2c1oc1ccc(Cl)cc12`, the Kd (in test [1]; on TGF-beta receptor type-2; in test [2]; in test [3]; in test [4]; in test [5]) was > 30 µM (inactive) each time. In addition, the Kd in test [6] was > 30 µM (inactive).

Turning to `Cc1c(Cn2c(C)nc3c(C(=O)O)cc(N4CCOCC4)cc32)cccc1C(F)(F)F` [GSK-2636771], the Kd (in test [1]; at TGF-beta receptor type-2; in test [2]; in test [3]; in test [4]; in test [5]) was > 30 µM (inactive) throughout. In test [6], the Kd is > 30 µM (inactive).

For `COc1cc2ncnc(Nc3ccc(O)cc3)c2cc1OC` [WHI-P131], the Kd (in test [1]; at TGF-beta receptor type-2; in test [2]; in test [3]; in test [4]; in test [5]) was > 30 µM (inactive) throughout. Besides, the Kd in test [6] is > 30 µM (inactive).

With `Cn1c(=O)c(F)c(Nc2ccc(I)cc2F)c2c(=O)n(C[C@@H](O)CO)cnc21` [TAK-733], the Kd (in test [1]; on TGF-beta receptor type-2; in test [2]; in test [3]; in test [4]; in test [5]) was > 30 µM (inactive) throughout. For the same compound, the Kd in test [6] was > 30 µM (inactive).

Turning to `Cn1cc(-c2[nH]c3cc(NC(=O)[C@H](N)C4CCCCC4)cc4c3c2C=NNC4=O)cn1`, the Kd in test [1] is > 30 µM (inactive); at TGF-beta receptor type-2, 0.146 µM (active); in test [2], > 30 µM (inactive); in test [3], > 30 µM (inactive); in test [4], > 30 µM (inactive); in test [5], > 30 µM (inactive). Besides, the Kd in test [6] was > 30 µM (inactive).

As for `COCCN1CCN(Cc2ccc(-c3n[nH]c4c3C(=O)c3c(NC(=O)NN5CCOCC5)cccc3-4)cc2)CC1` [RGB-286638], the Kd in test [1] is > 30 µM (inactive); on TGF-beta receptor type-2 it was 0.08 µM (active); in test [2], > 30 µM (inactive); in test [3], > 30 µM (inactive); in test [4], > 30 µM (inactive); in test [5] it was > 30 µM (inactive). Also, in test [6], the Kd was > 30 µM (inactive).

For the compound `CC(C)(O)CC(=O)NCCn1ccc2ncnc(Nc3ccc(Oc4cccc(C(F)(F)F)c4)c(Cl)c3)c21` [TAK-285], the Kd (in test [1]; at TGF-beta receptor type-2; in test [2]; in test [3]; in test [4]; in test [5]) was > 30 µM (inactive) in each case. For the same compound, the Kd in test [6] is > 30 µM (inactive).

Take `C[C@@H]1COC(Nc2ccc3ncnc(Nc4ccc(OCc5nccs5)c(Cl)c4)c3c2)=N1` [VARLITINIB]: the Kd (in test [1]; on TGF-beta receptor type-2; in test [2]; in test [3]; in test [4]; in test [5]) was > 30 µM (inactive) in each case. The Kd in test [6] was > 30 µM (inactive).

Regarding `O=C(NC[C@H](O)CO)c1ccncc1Nc1ccc(I)cc1F` [PIMASERTIB], the Kd (in test [1]; at TGF-beta receptor type-2; in test [2]; in test [3]; in test [4]; in test [5]) was > 30 µM (inactive) in each case. Also, the Kd in test [6] was > 30 µM (inactive).

On to `CCc1cc2c(cc1N1CCC(N3CCOCC3)CC1)C(C)(C)c1[nH]c3cc(C#N)ccc3c1C2=O` [ALECTINIB], for which the Kd (in test [1]; at TGF-beta receptor type-2; in test [2]; in test [3]; in test [4]; in test [5]) was > 30 µM (inactive) throughout. In test [6], the Kd is > 30 µM (inactive).

For the compound `Cn1c(=O)n(-c2ccc(C(C)(C)C#N)cc2)c2c3cc(-c4cnc5ccccc5c4)ccc3ncc21` [DACTOLISIB], the Kd (in test [1]; on TGF-beta receptor type-2; in test [2]; in test [3]; in test [4]; in test [5]) was > 30 µM (inactive) each time. The Kd in test [6] was > 30 µM (inactive).
